Measured values from doi:10.1101/2025.09.30.679521v1, “Crystallographic characterisation and development of bi-substrate inhibitors of coronavirus nsp14 methyltransferase” (biorxiv, 2025).
Like-named read-outs stand apart in the source and are kept apart here.

Experiments:
SARS-CoV-2 nsp14 = molecular target: T1, SARS-CoV-2 nsp14 (Severe acute respiratory syndrome coronavirus 2, UniProt P0DTD1); assay: RapidFire MS methyltransferase assay; assay type: biochemical
T1 construct: gene rep
Text: RapidFire MS methyltransferase assay on SARS-CoV-2 nsp14

physchem [1] = assay: physchem
in vitro = assay: in vitro; set-up: mouse liver microsomal stability; settings: liver microsomes; Mouse liver microsomes; read-out: Mouse liver Mic T1/2 / min
Text: We initiated our structure-activity relationship (SAR) studies by investigating various replacements for the benzothiazole group, compounds 2-17, Table 1. […] Relatively flat SAR is observed across this subset of compounds, indeed a 6,5 or 6,6 aromatic system with the appropriate connectivity as compound 1 display relatively similar potencies. […] In general, the mouse microsomal clearance was rather low for this set of molecules, with no significant instabilities introduced, with perhaps the exception of compound 4. With no significant advantages in either potency or mouse microsomal clearance (Table S2) identified for this subset, the benzothiazole was taken forward into subsequent SAR studies. Table 2. Enzymatic inhibition against SARS-CoV-2 nsp14, human RNMT, CHI-logD and mouse microsomal stability.

HCoV-NL63 nsp14 = HCoV-NL63 nsp14 (Human coronavirus NL63, UniProt P0C6X5); assay: RapidFire MS methyltransferase assay; assay type: biochemical
HCoV-NL63 nsp14, sequence (P0C6X5 5568-6085): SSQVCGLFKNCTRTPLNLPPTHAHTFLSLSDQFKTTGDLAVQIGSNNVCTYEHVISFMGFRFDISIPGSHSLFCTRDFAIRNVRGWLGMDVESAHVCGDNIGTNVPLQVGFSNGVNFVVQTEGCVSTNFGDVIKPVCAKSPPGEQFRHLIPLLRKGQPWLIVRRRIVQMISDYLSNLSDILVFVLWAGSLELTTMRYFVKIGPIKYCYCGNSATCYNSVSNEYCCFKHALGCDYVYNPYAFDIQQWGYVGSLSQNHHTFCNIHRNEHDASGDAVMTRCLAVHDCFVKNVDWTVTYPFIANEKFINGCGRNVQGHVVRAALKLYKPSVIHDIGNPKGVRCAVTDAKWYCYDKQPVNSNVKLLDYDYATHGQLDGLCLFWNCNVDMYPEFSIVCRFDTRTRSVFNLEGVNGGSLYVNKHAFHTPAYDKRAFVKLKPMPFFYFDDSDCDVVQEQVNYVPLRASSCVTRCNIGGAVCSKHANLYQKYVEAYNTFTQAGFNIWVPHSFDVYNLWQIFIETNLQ
Text: RapidFire MS methyltransferase assay on HCoV-NL63 nsp14

human RNMT = human RNMT (Homo sapiens, UniProt O43148); assay: RNMT methyltransferase assay (Gray et al.); assay type: biochemical
human RNMT, sequence (O43148 whole entry): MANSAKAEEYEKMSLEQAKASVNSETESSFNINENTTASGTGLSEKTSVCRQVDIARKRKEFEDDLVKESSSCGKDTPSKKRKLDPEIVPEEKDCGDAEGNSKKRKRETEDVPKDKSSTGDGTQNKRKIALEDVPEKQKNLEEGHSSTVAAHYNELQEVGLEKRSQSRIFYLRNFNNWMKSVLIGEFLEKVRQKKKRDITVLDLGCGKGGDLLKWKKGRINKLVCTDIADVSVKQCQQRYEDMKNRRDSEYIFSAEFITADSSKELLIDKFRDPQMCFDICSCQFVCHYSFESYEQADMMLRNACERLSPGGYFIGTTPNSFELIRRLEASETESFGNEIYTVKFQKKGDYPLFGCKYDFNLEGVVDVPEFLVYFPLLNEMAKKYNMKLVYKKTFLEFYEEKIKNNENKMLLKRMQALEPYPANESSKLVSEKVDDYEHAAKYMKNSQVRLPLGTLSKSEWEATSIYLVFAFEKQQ
Text: RNMT methyltransferase assay (Gray et al.) on human RNMT

HCoV-229E nsp14 = molecular target: T2, HCoV-229E nsp14 (Human coronavirus 229E, UniProt P0C6X1); assay: RapidFire MS methyltransferase assay; assay type: biochemical
T2 construct: gene rep
T2 sequence (P0C6X1 5593-6110): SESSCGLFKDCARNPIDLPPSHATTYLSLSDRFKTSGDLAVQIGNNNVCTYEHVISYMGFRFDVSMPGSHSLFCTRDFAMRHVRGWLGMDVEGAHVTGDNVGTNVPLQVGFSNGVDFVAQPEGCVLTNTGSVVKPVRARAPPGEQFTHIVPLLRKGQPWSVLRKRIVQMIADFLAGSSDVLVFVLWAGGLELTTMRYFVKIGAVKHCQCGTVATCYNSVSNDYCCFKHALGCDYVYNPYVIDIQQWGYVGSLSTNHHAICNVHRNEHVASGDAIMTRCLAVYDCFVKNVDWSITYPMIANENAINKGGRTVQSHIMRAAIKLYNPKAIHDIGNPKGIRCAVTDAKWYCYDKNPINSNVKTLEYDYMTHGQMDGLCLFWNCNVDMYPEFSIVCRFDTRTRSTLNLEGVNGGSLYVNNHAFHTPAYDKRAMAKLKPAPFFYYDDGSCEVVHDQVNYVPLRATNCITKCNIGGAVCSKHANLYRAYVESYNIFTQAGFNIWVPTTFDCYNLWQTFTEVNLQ
Text: RapidFire MS methyltransferase assay on HCoV-229E nsp14

physchem [2] = assay: physchem; remark: listed apart in the source

| Structure (SMILES) | IC50 (SARS-CoV-2 nsp14; read-out: IC50) [nM] | logD (physchem [1]) | half-life (in vitro) [min] | IC50 (HCoV-NL63 nsp14; read-out: IC50) [nM] | IC50 (human RNMT) [nM] | IC50 (HCoV-229E nsp14; read-out: IC50) [nM] | also measured |
| --- | --- | --- | --- | --- | --- | --- | --- |
| Nc1ncnn2c([C@@H]3O[C@H](CSc4ccc5ccccc5n4)[C@@H](O)[C@H]3O)ccc12 [compound 38] | 680 ± 110 | 1.7 |  |  |  |  |  |
| Nc1ncnn2c([C@@H]3O[C@H](CSc4nc5ccccc5s4)[C@@H](O)[C@H]3O)ccc12 [compound 35, (2S,3R,4S,5S)-2-(4-Aminopyrrolo[2,1-f][1,2,4]triazin-7-yl)-5-(1,3-benzothiazol-2-ylsulfanylmethyl)tetrahydrofuran-3,4-diol] |  |  | > 30 |  |  |  |  |
| Nc1ncnc2c1ncn2[C@@H]1O[C@H](CSc2ccc3ccccc3n2)[C@@H](O)[C@H]1O [compound 7] | 330 ± 90 |  | > 30 | 240 ± 80 | > 100000 | 550 ± 80 | logD (physchem [2]): 1.3 |
| Nc1ncnn2c([C@@H]3O[C@H](CCc4nc5ccccc5s4)[C@@H](O)[C@H]3O)ccc12 [compound 39, (2S,3R,4S,5R)-2-(4-Aminopyrrolo[2,1-f][1,2,4]triazin-7-yl)-5-[2-(1,3-benzothiazol-2-yl)ethyl]tetrahydrofuran-3,4-diol] |  |  | > 30 |  |  |  |  |
| Nc1ncnc2c1ncn2[C@@H]1O[C@H](CSc2nc3ccccc3[nH]2)[C@@H](O)[C@H]1O [compound 15, (2S,3S,4R,5R)-2-(((1H-Benzo[d]imidazol-2-yl)thio)methyl)-5-(6-amino-9H-purin-9-yl) tetrahydrofuran-3,4-diol] |  |  | > 30 |  |  |  |  |
| N#Cc1cn([C@@H]2O[C@H](CSc3nc4ccccc4s3)[C@@H](O)[C@H]2O)c2ncnc(N)c12 [compound 29] |  | 1.8 | 12.1 |  | > 100000 |  | IC50 (HCoV-NL63 nsp14): 73 ± 26 nM; IC50 (HCoV-229E nsp14): 100 ± 7 nM; IC50 (SARS-CoV-2 nsp14): 170 ± 20 nM |
| Cc1ccc2ccc(SC[C@H]3O[C@@H](n4cnc5c(N)ncnc54)[C@H](O)[C@@H]3O)nc2c1 [compound 9] |  |  | > 30 |  | 70500 |  | IC50 (HCoV-NL63 nsp14): 500 ± 110 nM; IC50 (HCoV-229E nsp14): 1400 ± 100 nM; IC50 (SARS-CoV-2 nsp14): 390 ± 60 nM; logD (physchem [2]): 1.7 |
| Nc1ncnc2c1ncn2[C@@H]1O[C@H](CSc2ccn3cncc3c2)[C@@H](O)[C@H]1O [compound 17] | 6900 ± 4600 | 0.1 |  | 6400 ± 1600 | 31100 | 1100 ± 150 |  |
| Nc1ncnc2c1ncn2[C@@H]1O[C@H](CSc2nc3ccccc3s2)[C@@H](O)[C@H]1O [compound 1] | 420 ± 300 |  | > 30 | 190 ± 30 | > 100000 | 310 ± 8 | logD (physchem [2]): 1.2 |
| Nc1ncnn2c([C@@H]3O[C@H](CSc4nc5ccccc5s4)[C@@H](O)[C@H]3O)ccc12 [compound 35] | 370 ± 130 | 1.5 |  | 100 ± 20 |  | 190 ± 40 |  |
| Nc1ncnc2c1ncn2[C@@H]1O[C@H](CSc2nc3ccccc3o2)[C@@H](O)[C@H]1O [compound 14] | 670 ± 20 | 1 |  | 660 ± 400 | > 100000 | 950 ± 20 |  |
| Cc1ccc2sc(SC[C@H]3O[C@@H](n4cnc5c(N)ncnc54)[C@H](O)[C@@H]3O)nc2c1 [compound 3] |  |  | 25.7 |  | > 100000 |  | IC50 (SARS-CoV-2 nsp14): 1200 ± 150 nM; logD (physchem [2]): 1.6 |
| Nc1ncnc2c1ccn2[C@@H]1C[C@H](CSc2nc3ccccc3s2)[C@@H](O)[C@H]1O [compound 28] |  | 1.8 | > 30 |  |  |  |  |
| Nc1ncnc2c1ncn2[C@@H]1O[C@H](CSc2cccc3cn[nH]c23)[C@@H](O)[C@H]1O [compound 16] |  | 0.7 |  |  | > 100000 |  | IC50 (SARS-CoV-2 nsp14; SAM and RNA cap substrate at KM (SAM 1.0 µM), unreliable (footnote: one IC50 measured > 100 µM)): 79000 ± 18000 nM |
| CNc1ncnc2c1ncn2[C@@H]1O[C@H](CSc2nc3ccccc3s2)[C@@H](O)[C@H]1O [compound 18, (2S,3S,4R,5R)-2-(1,3-Benzothiazol-2-ylsulfanylmethyl)-5-[6-(methylamino)purin-9-yl]tetrahydrofuran-3,4-diol] |  |  | 19.7 |  |  |  |  |
| Nc1ncnc2c1ncn2[C@@H]1O[C@H](CSc2ccn3cncc3c2)[C@@H](O)[C@H]1O [compound 17, (2R,3R,4S,5S)-2-(6-Aminopurin-9-yl)-5-(imidazo[1,5-a]pyridine-7-ylsulfanylmethyl) tetrahydrofuran-3,4-diol] |  |  | 11.1 |  |  |  |  |
| Nc1ncnc2c1ncn2[C@@H]1O[C@H](CSc2ccc3ccccc3c2)[C@@H](O)[C@H]1O [compound 6] | 310 ± 120 |  | 26.9 | 230 ± 20 | > 100000 | 470 ± 60 | logD (physchem [2]): 1.8 |

| Structure (SMILES) | IC50 (SARS-CoV-2 nsp14; read-out: IC50) [nM] | logD (physchem [1]) | half-life (in vitro) [min] | IC50 (HCoV-NL63 nsp14; read-out: IC50) [nM] | IC50 (human RNMT) [nM] | IC50 (HCoV-229E nsp14; read-out: IC50) [nM] | also measured |
| --- | --- | --- | --- | --- | --- | --- | --- |
| Nc1ncnc2c1ncn2[C@@H]1O[C@H](CSc2nccs2)[C@@H](O)[C@H]1O [compound 11] | > 100000 |  |  | > 50000 | > 100000 | > 50000 | logD (physchem [2]): 0.3 |
| C#Cc1cn([C@@H]2O[C@H](CSc3nc4ccccc4s3)[C@@H](O)[C@H]2O)c2ncnc(N)c12 [compound 30] |  | 2 | 10.1 |  | > 100000 |  | IC50 (HCoV-NL63 nsp14): 29 ± 9 nM; IC50 (HCoV-229E nsp14): 33 ± 2 nM; IC50 (SARS-CoV-2 nsp14): 54 ± 10 nM |
| Nc1ncnc2c1ccn2[C@@H]1O[C@H](CSc2nc3ccccc3s2)[C@@H](O)[C@H]1O [compound 27] | 55 ± 20 | 1.6 | > 30 | 39 ± 6 | > 100000 | 41 ± 4 |  |
| Nc1ncnn2c([C@@H]3O[C@H](CSc4ccc5ccccc5c4)[C@@H](O)[C@H]3O)ccc12 [compound 37] | 200 ± 70 | 2.2 |  |  |  |  |  |
| Cc1ccc2nc(SC[C@H]3O[C@@H](c4ccc5c(N)ncnn45)[C@H](O)[C@@H]3O)sc2c1 [compound 36, (2S,3R,4S,5S)-2-(4-Aminopyrrolo[2,1-f][1,2,4]triazin-7-yl)-5-[(6-methyl-1,3-benzothiazol-2-yl)sulfanylmethyl]tetrahydrofuran-3,4-diol] |  |  | 18 |  |  |  |  |
| Nc1ncnn2c([C@@H]3O[C@H](CSc4ccc5ccccc5n4)[C@@H](O)[C@H]3O)ccc12 [compound 38, (2S,3R,4S,5S)-2-(4-Aminopyrrolo[2,1-f][1,2,4]triazin-7-yl)-5-(2-quinolylsulfanylmethyl) tetrahydrofuran-3,4-diol] |  |  | > 30 |  |  |  |  |
| Nc1ncnc2c1ncn2[C@@H]1O[C@H](CSc2nccs2)[C@@H](O)[C@H]1O [compound 11, (2R,3R,4S,5S)-2-(6-Aminopurin-9-yl)-5-(thiazol-2-ylsulfanylmethyl) tetrahydrofuran-3,4-diol] |  |  | > 30 |  |  |  |  |
| Cc1ccc2nc(SC[C@H]3O[C@@H](n4cnc5c(N)ncnc54)[C@H](O)[C@@H]3O)ccc2c1 [compound 8] |  |  | > 30 |  | > 100000 |  | IC50 (HCoV-NL63 nsp14): 520 ± 10 nM; IC50 (HCoV-229E nsp14): 1900 ± 100 nM; IC50 (SARS-CoV-2 nsp14): 1100 ± 70 nM; logD (physchem [2]): 1.7 |
| Nc1ncnn2c([C@@H]3O[C@H](CCc4nc5ccccc5s4)[C@@H](O)[C@H]3O)ccc12 [compound 39] | 500 ± 400 | 1.3 |  | 760 ± 300 |  | 2300 ± 50 |  |
| CCNC(=O)NCCSC[C@H]1O[C@@H](n2cnc3c(N)ncnc32)[C@H](O)[C@@H]1O [compound 5] | 1900 ± 300 |  | > 30 |  | > 100000 |  | logD (physchem [2]): -0.2 |
| Cc1ccc2nc(SC[C@H]3O[C@@H](c4ccc5c(N)ncnn45)[C@H](O)[C@@H]3O)sc2c1 [compound 36] | 340 ± 140 | 1.9 |  |  |  |  |  |
| Nc1ncnc2c1ncn2[C@@H]1O[C@H](CSc2nc3ccccc3o2)[C@@H](O)[C@H]1O [compound 14, (2R,3R,4S,5S)-2-(6-Amino-9H-purin-9-yl)-5-((benzo[d]oxazol-2-ylthio)methyl) tetrahydrofuran-3,4-diol] |  |  | > 30 |  |  |  |  |
| CCc1cn([C@@H]2O[C@H](CSc3nc4ccccc4s3)[C@@H](O)[C@H]2O)c2ncnc(N)c12 [compound 31, (2R,3R,4S,5S)-2-(4-amino-5-ethyl-pyrrolo[2,3-d]pyrimidin-7-yl) -5-(1,3-benzothiazol-2-ylsulfanylmethyl)tetrahydrofuran-3,4-diol] |  |  | 3.9 |  |  |  |  |
| Nc1ncnn2c([C@@H]3O[C@H](CSc4ccc5ccccc5c4)[C@@H](O)[C@H]3O)ccc12 [compound 37, (2S,3R,4S,5S)-2-(4-Aminopyrrolo[2,1-f][1,2,4]triazin-7-yl)-5-(2-naphthylsulfanylmethyl) tetrahydrofuran-3,4-diol] |  |  | 13.6 |  |  |  |  |
| Nc1ncnc2c1ncn2[C@@H]1O[C@H](CSc2cccn3cncc23)[C@@H](O)[C@H]1O [compound 12] | 15000 ± 12000 |  |  | 9500 ± 2300 | 9300 | 790 ± 60 | logD (physchem [2]): 0.3 |
| Nc1ncnc2c1ncn2[C@@H]1O[C@H](CSc2nc3ccccc3[nH]2)[C@@H](O)[C@H]1O [compound 15] | 590 ± 110 | 0.3 |  | 480 ± 100 | > 100000 | 860 ± 200 |  |
| CCc1cn([C@@H]2O[C@H](CSc3nc4ccccc4s3)[C@@H](O)[C@H]2O)c2ncnc(N)c12 [compound 31] | 250 ± 200 | 2.1 |  | 52 ± 9 | > 100000 | 120 ± 10 |  |
